Data reported in the supplement of paper PMC10307832.

Experiments:
Test in all cases: relative viability (nuclei count vs DMSO), 5 days (fraction); higher = more cells survive
Tozasertib + Palbociclib = compound: Cc1cc(Nc2cc(N3CCN(C)CC3)nc(Sc3ccc(NC(=O)C4CC4)cc3)n2)n[nH]1 [Tozasertib] + CC(=O)c1c(C)c2cnc(Nc3ccc(N4CCNCC4)cn3)nc2n(C2CCCC2)c1=O [Palbociclib] (partner 0.5 µM)
Method in brief: (§1)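 Relative viability equals treated-well nuclei counts divided by vehicle-well nuclei counts. Counts came from 4× images of lung cancer cell lines grown in 1536-well plates for 5 days after pin-tool dosing on the day after seeding. Dosing used one drug alone or a fixed anchor-drug dose plus five library-drug doses (not always all listed) in √10 steps, and values are medians of duplicate plates.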

Tozasertib + Bortezomib = compound: Cc1cc(Nc2cc(N3CCN(C)CC3)nc(Sc3ccc(NC(=O)C4CC4)cc3)n2)n[nH]1 [Tozasertib] + CC(C)C[C@H](NC(=O)[C@H](Cc1ccccc1)NC(=O)c1cnccn1)B(O)O [Bortezomib] (partner 0.002 µM)
Method in brief: as §1

Tozasertib + Foretinib = compound: Cc1cc(Nc2cc(N3CCN(C)CC3)nc(Sc3ccc(NC(=O)C4CC4)cc3)n2)n[nH]1 [Tozasertib] + COc1cc2c(Oc3ccc(NC(=O)C4(C(=O)Nc5ccc(F)cc5)CC4)cc3F)ccnc2cc1OCCCN1CCOCC1 [Foretinib] (partner 0.25 µM)
Method in brief: as §1

Tozasertib + Pictilisib = compound: Cc1cc(Nc2cc(N3CCN(C)CC3)nc(Sc3ccc(NC(=O)C4CC4)cc3)n2)n[nH]1 [Tozasertib] + CS(=O)(=O)N1CCN(Cc2cc3nc(-c4cccc5[nH]ncc45)nc(N4CCOCC4)c3s2)CC1 [Pictilisib] (partner 1 µM)
Method in brief: as §1

Tozasertib + Phenformin = compound: Cc1cc(Nc2cc(N3CCN(C)CC3)nc(Sc3ccc(NC(=O)C4CC4)cc3)n2)n[nH]1 [Tozasertib] + N=C(N)NC(=N)NCCc1ccccc1 [Phenformin] (partner 250 µM)
Method in brief: as §1

Cell Line	relative viability (Tozasertib + Palbociclib; first compound 0.004 µM)	relative viability (Tozasertib + Palbociclib; first compound 0.01265 µM)	relative viability (Tozasertib + Palbociclib; first compound 0.04 µM)	relative viability (Tozasertib + Palbociclib; first compound 0.1265 µM)	relative viability (Tozasertib + Bortezomib; first compound 0.004 µM)	relative viability (Tozasertib + Bortezomib; first compound 0.01265 µM)	relative viability (Tozasertib + Bortezomib; first compound 0.04 µM)	relative viability (Tozasertib + Bortezomib; first compound 0.1265 µM)	relative viability (Tozasertib + Foretinib; first compound 0.004 µM)	relative viability (Tozasertib + Foretinib; first compound 0.04 µM)	relative viability (Tozasertib + Foretinib; first compound 0.1265 µM)	relative viability (Tozasertib + Pictilisib; first compound 0.004 µM)	relative viability (Tozasertib + Pictilisib; first compound 0.01265 µM)	relative viability (Tozasertib + Pictilisib; first compound 0.04 µM)	relative viability (Tozasertib + Pictilisib; first compound 0.1265 µM)	relative viability (Tozasertib + Phenformin; first compound 0.004 µM)	relative viability (Tozasertib + Phenformin; first compound 0.01265 µM)	relative viability (Tozasertib + Phenformin; first compound 0.04 µM)	relative viability (Tozasertib + Phenformin; first compound 0.1265 µM)	relative viability (Tozasertib + Foretinib; first compound 0.01265 µM)
NCI-H1734	0.361	0.308	0.364	0.306	0.833	0.998	1.07	0.464	0.888	0.824	0.414	0.528	0.494	0.518	0.401	0.41	0.432	0.374	0.241	–
201T	0.355	0.362	0.364	0.224	1.1	1.06	1.07	–	1.09	1.28	1.09	0.716	0.581	0.709	0.537	0.496	0.432	0.448	0.415	1.04
LK-2	0.736	0.782	0.887	0.378	–	–	–	–	1.51	1.34	0.267	0.715	–	0.61	0.359	0.37	0.493	0.412	0.212	0.927
HCC-44	1.03	0.954	1.02	0.874	0.866	0.942	1.04	0.786	–	–	–	0.596	0.603	0.67	0.409	0.184	0.251	0.184	0.104	–
NCI-H1355	0.362	0.424	0.457	0.391	1.19	1.15	1.27	0.606	0.942	0.901	0.853	0.426	0.461	0.52	0.272	0.469	0.424	0.459	0.367	0.926
PC-3 [JPC-3]	0.526	0.535	0.511	0.545	0.787	0.829	0.881	0.757	1	1.07	0.961	0.657	0.724	0.732	0.598	0.377	0.49	0.536	0.469	1.06
UMC-11	0.345	0.317	0.356	0.248	0.729	0.621	0.768	0.186	0.985	0.788	0.186	1.09	0.788	0.864	0.463	0.372	0.308	0.3	0.171	0.995
NCI-H1395	0.613	0.612	0.632	0.56	–	–	–	–	0.951	0.972	0.838	0.657	0.528	0.604	0.469	0.46	0.429	0.47	0.359	0.864
SK-LU-1	0.428	0.414	0.476	0.469	1.18	1.07	1.27	0.813	0.889	0.862	0.752	0.71	0.508	0.639	0.458	0.55	0.569	0.578	0.324	0.874
NCI-H2405	0.558	0.538	0.498	0.527	1.05	0.944	0.96	0.826	1.09	1.01	0.974	0.386	0.478	0.479	0.396	0.392	0.402	0.424	0.408	1
NCI-H1915	0.515	0.498	0.535	0.465	1.07	0.924	0.953	0.727	1.16	1.06	0.862	1.06	0.862	0.872	0.635	0.381	0.324	0.336	0.321	1.02
NCI-H1651	0.54	0.515	0.539	0.519	1.05	0.851	0.979	0.885	0.694	0.856	0.87	0.655	0.62	0.634	0.377	0.319	0.339	0.316	0.267	0.773
NCI-H1703	–	–	–	–	0.41	0.29	0.401	0.222	0.36	0.337	0.327	0.287	0.221	0.248	0.23	–	–	–	–	0.409
HCC-827	0.511	0.516	0.603	0.493	1.03	1.04	1.06	0.839	0.996	1.13	0.758	0.872	0.999	1.14	0.918	0.384	0.403	0.484	0.406	1.03
HCC-78	0.404	0.466	0.451	0.484	0.504	–	–	0.497	0.678	0.587	0.466	0.235	0.203	0.202	0.171	0.957	0.608	0.699	0.525	0.708
CAL-12T	0.713	0.41	0.459	0.242	1.2	0.785	0.962	0.362	1.19	1.11	1.11	0.472	0.386	0.414	0.171	0.669	0.499	0.529	0.272	1.04
HCC-366	0.4	0.391	0.502	0.227	1.2	1	1.15	0.53	–	0.63	0.0962	0.106	0.135	0.122	0.0817	0.629	0.56	0.661	0.651	0.912
